Legend:
RIF tumors [1] = assay: Tumor uptake by in vivo reflectance spectroscopy; parameters: species or system C3H mice
Experimental: The tumor uptake of conjugate 5 was determined by in vivo reflectance spectroscopy. For these experiments, C3H mice bearing RIF tumors were injected with 5.0 μmole/kg of conjugate 5 and the in vivo absorption spectra were taken at various time intervals.

RIF tumors [2] = assay: Photosensitizing efficiency (photodynamic therapy of implanted tumors); format: in vivo, C3H mice; conditions: light 135 J/cm^2 at 665 nm, 24 hours post injection, FIG. 7
Experimental: To measure photosensitizing efficiency, RIF tumors were implanted subcutaneously into axilla of 5-7 week old female C3H mice. When tumors grew to about […] in size, conjugate 5 was injected at variable doses (0.5, 1.0, 1.5, and 2.5 μmole/kg) The tumors were treated with light at an energy of 135 J/cm^2 at a wavelength of 665 nm (in vivo absorption band for HPPH) at 24 hours post injection and the mice were observed daily. From the results summarized in FIG. 7, it can be seen that conjugate 5 produced 100% tumor cure at a dose of 2.5 μmole/kg (the tumor imaging dose).

RIF tumor cells = assay: Site of intracellular localization compared with a mitochondrial probe; format: cell-based; conditions: 24 hours incubation; compared with MITO-TRACKER green (400 nM); FIG. 8
From the text: In general, porphyrin based compounds have shown diverse patterns of localization at least somewhat dependent upon structure, lipophilicity and charge.

Row | Compound | uptake in tumor relative to skin (RIF tumors [1]; 5.0 μmole/kg injected, 24 hours post injection, FIG. 3) | tumor cure (RIF tumors [2]; 2.5 μmole/kg) | photosensitizing efficacy at lower doses (RIF tumors [2]; doses below 2.5 μmole/kg (0.5, 1.0, 1.5)) | site of localization in cells (RIF tumor cells) | uptake in skin relative to tumor, dye alone (RIF tumors [1]; 5.0 μmole/kg, dye alone, C3H mouse bearing tumor) | tumor uptake compared with HPPH-ICG conjugate 5 (RIF tumors [1]; 5.0 μmole/kg, dye alone, FIG. 5) | time post injection at which cleared from both tumor and skin (RIF tumors [1]; 5.0 μmole/kg, dye alone, found to clear rapidly)
1 | CCCCCCOC(C)c1c(C)c2cc3nc(c4c5[nH]c(cc6nc(cc1[nH]2)C(C)=C6CC)c(C)c5C(=O)C4)C(CCC(=O)Nc1ccc(SC2=C(C=CC4=[N+](CCCCS(=O)(=O)[O-])c5ccc6ccccc6c5C4(C)C)CCCC2=CC=C2N(CCCCS(=O)(=O)[O-])c4ccc5ccccc5c4C2(C)C)cc1)C3C.[Na+] (stereo not shown) [conjugate 5] | more significant uptake in tumor than skin | 100% | limited photosensitizing efficacy | localizes in mitochondria |  |  | 
2 | CC1(C)C(=CC=C2CCCC(C=CC3=[N+](CCCCS(=O)(=O)[O-])c4ccc5ccccc5c4C3(C)C)=C2Cl)N(CCCCS(=O)(=O)[O-])c2ccc3ccccc3c21.[Na+] [indocyanine green analog (1), indocyanine green 820 nm analog CAS172616-80-7] |  |  |  |  | higher uptake in skin than in tumor | significantly lower tumor uptake | 4 to 5 h

— US7947729B2, “Adduct of fluorescent dye and tumor avid tetrapyrrole” (Health Research, Inc., priority 2004, dated 2011)
